Source: patent US20090280160A1, “PHENYLEPHRINE PHARMACEUTICAL FORMULATIONS AND COMPOSITIONS FOR TRANSMUCOSAL ABSORPTION” (Schering-Plough Healthcare Products, Inc., priority 2007, published 2009)
Entries after “also recorded” stand apart in the source; their conditions may differ.

Assays:
α1b adrenoreceptor = target: T1, α1b adrenoreceptor (Homo sapiens, UniProt P35368); experiment: Cellular calcium flux (FLIPR), α1b expressing CHO cells; type: cell-based; settings: for increase in intracellular calcium, α1b calcium assay (in words): α1b expressing CHO cells
T1 construct: expressed in transfected cells
T1 sequence (P35368 1-520): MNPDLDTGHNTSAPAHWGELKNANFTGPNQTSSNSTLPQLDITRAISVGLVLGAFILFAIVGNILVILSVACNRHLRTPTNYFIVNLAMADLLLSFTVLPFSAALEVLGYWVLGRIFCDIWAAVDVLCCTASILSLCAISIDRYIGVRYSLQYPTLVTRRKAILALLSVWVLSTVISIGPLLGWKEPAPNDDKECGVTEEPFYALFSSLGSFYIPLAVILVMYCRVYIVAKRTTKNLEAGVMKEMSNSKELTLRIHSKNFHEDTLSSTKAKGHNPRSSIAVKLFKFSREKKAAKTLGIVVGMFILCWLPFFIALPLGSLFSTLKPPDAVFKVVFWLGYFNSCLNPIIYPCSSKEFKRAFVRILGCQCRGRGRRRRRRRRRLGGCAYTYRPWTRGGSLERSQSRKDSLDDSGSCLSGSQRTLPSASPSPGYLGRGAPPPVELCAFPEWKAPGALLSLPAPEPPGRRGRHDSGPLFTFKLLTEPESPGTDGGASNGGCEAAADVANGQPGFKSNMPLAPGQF
Protocol: (§1) The affinity and activity of phenylephrine metabolites were evaluated in human recombinant α1 and α2 adrenoreceptor binding and activity assays. […] Affinity of the metabolites was determined by receptor binding assays. Functional activity of the metabolites was assessed using an [^35S]-GTPγS binding exchange assay for the α2 receptor subtypes and a cell-based calcium flux response for the α1 receptor subtypes.
Intracellular calcium levels were measured using a fluorometric imaging plate reader (FLIPR). Cells expressing α1 adrenoreceptors were cultured overnight at 15,000 cells/well in 96 well black-wall clear bottom plates (Packard). Adherent cells were loaded for 1 hour at 37° C. using the FLIPR Calcium Plus Assay Kit (Molecular Probes, Eugene, Oreg.), which included 2.5 mM probenecid (Sigma). Compounds (at 10 mM in 100% DMSO) were diluted in diluting buffer (HBSS, 20 mM HEPES, 2.5 mM probenecid, 0.5% BSA, pH 7.4). A titration of norepinephrine was included in every experiment and norepinephrine (at 1 μM) was also used as a plate standard on each assay plate. Cells were maintained at 37° C. throughout all calcium measurements. Fluorescence data was collected at 1 second interval for 60 seconds, followed by collection at 2 second intervals for 30 seconds. Background fluorescence was quantitated in wells containing cells with no additions and was subtracted from all experimental samples. All conditions were done in quadruplicate. Non-linear regression analysis using GraphPad Prism was used to calculate EC50 values.
(§2) Each metabolite was evaluated in each assay in at least 2 independent experiments and a representative assay of each metabolite/assay combination is shown.

α2b adrenoreceptor [1] = target: T2, α2b adrenoreceptor (Homo sapiens, UniProt P18089); experiment: [35S]-GTPγS binding exchange, α2b CHO cell membranes; type: biochemical; settings: for stimulation of [35S]-GTPγS binding, α2b (in words): CHO cell membranes
T2 construct: expressed in transfected cells; host or cells: CHO (Chinese hamster ovary) cells, membranes
T2 sequence (P18089 1-450): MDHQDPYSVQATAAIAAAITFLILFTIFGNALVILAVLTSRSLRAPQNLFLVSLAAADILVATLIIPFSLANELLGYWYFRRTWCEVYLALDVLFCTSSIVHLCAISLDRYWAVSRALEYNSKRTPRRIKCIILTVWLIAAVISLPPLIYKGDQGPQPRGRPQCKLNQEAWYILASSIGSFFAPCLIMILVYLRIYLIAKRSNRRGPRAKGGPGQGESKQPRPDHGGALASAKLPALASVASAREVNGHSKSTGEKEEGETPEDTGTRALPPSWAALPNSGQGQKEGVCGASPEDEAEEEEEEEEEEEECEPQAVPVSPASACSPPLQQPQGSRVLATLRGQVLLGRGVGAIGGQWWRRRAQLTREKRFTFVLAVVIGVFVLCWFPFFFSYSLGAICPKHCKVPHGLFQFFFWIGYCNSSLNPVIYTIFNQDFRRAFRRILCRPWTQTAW
Protocol: as §1
Assay buffer was 75 mM Tris-HCl pH 7.4, 12.5 mM MgCl2, 2 mM EDTA and 1 μM GDP. Plates were counted on a Packard TopCount. The percent increase over basal binding of [^35S]-GTPγS, a measure of efficacy, was calculated as follows: 100×[[mean total sample cpm−basal cpm]÷by basal cpm]. Basal cpm was defined as the mean cpm in the absence of agonist compound minus the mean non-specific binding cpm.
as §2

α2b adrenoreceptor [2] = target: T2, α2b adrenoreceptor; experiment: Competition binding, [3H]-UK14304, α2b CHO cell membranes; settings: for inhibition of [3H]-UK14304 binding, α2b (in words): CHO cell membranes
Protocol: as §1
(§3) Competition Binding Assays
(§4) Competition binding assays for the α2 adrenoreceptors were performed using 20 μg membrane protein per well in binding buffer (75 mM Tris-HCl pH 7.4, 12.5 mM MgCl2, […] EDTA, 0.2% bovine serum albumin). […] Binding was terminated by rapid filtration through GF/C unifilter plates, presoaked with 0.3% polyethylenimine, with five washes with 0.5 ml cold 50 mM Tris-HCl ph 7.4, using a Packard Filtermate Harvester. After drying, bound radioactivity was determined by liquid scintillation counting (Packard TopCount) with Microscint 20, 50 μl/well. Binding data were analyzed using GraphPad Prism.
as §2

α2c adrenoreceptor = target: T3, α2c adrenoreceptor (Homo sapiens, UniProt P18825); experiment: Competition binding, [3H]-UK14304, α2c CHO cell membranes; settings: for inhibition of [3H]-UK14304 binding, α2c (in words): CHO cell membranes
T3 construct: expressed in transfected cells; host or cells: CHO (Chinese hamster ovary) cells, membranes
T3 sequence (P18825 1-462): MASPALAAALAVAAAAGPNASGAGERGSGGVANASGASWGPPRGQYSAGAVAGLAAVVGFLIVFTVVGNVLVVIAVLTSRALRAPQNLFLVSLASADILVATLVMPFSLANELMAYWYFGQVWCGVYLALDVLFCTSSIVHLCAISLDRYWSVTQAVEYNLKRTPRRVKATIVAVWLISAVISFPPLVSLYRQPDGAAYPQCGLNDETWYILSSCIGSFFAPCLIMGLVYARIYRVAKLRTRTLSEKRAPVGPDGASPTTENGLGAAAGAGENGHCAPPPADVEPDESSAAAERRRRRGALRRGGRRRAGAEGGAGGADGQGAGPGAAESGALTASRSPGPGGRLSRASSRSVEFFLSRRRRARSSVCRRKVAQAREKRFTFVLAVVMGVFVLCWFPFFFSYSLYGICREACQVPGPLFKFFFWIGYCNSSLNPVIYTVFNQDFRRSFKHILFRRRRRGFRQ
Protocol: as §1, §3, §4, §2

[3] = highest concentration evaluated (10 μM)
[4] = at 100 μM (highest concentration evaluated)
[5] = listed as PE glucuronide batch 4

agonist activity, α1b calcium assay (in words) (α1b adrenoreceptor; [3])	EC50 (α1b adrenoreceptor; α1b-expressing CHO cells, read-out: EC50, a1b Calcium (class symbol))	agonist activity, α2b [35S]-GTPγS assay (in words) (α2b adrenoreceptor [1]; [3])	EC50 (α2b adrenoreceptor [1]; read-out: EC50, a2b GTPγS (class symbol))	Ki (α2b adrenoreceptor [2]; [3H]-UK14304, read-out: Ki, a2b Binding (class symbol))	binding / affinity, α2b receptor (in words) (α2b adrenoreceptor [2]; [4])	Ki (α2c adrenoreceptor; [3H]-UK14304, read-out: Ki, a2c Binding (class symbol))	binding / affinity, α2c receptor (in words) (α2c adrenoreceptor; [4])	Compound	increase in intracellular calcium, α1b calcium assay (in words) (α1b adrenoreceptor)	stimulation of [35S]-GTPγS binding, α2b (in words) (α2b adrenoreceptor [1])	inhibition of [3H]-UK14304 binding, α2b (in words) (α2b adrenoreceptor [2])	inhibition of [3H]-UK14304 binding, α2c (in words) (α2c adrenoreceptor)	fold less potent than PE in inducing a calcium increase, α1b cells (α1b adrenoreceptor; batch b4, approximately 0.28% PE)	increase in intracellular calcium, α1b calcium assay (in words) (α1b adrenoreceptor; [5])	stimulation of [35S]-GTPγS binding, α2b (in words) (α2b adrenoreceptor [1]; listed as PE glucuronide b2)	inhibition of [3H]-UK14304 binding, α2b (in words) (α2b adrenoreceptor [2]; listed as PE glucuronide b4)	inhibition of [3H]-UK14304 binding, α2b (in words) (α2b adrenoreceptor [2]; [5])	inhibition of [3H]-UK14304 binding, α2c (in words) (α2c adrenoreceptor; listed as PE glucuronide b4)	inhibition of [3H]-UK14304 binding, α2c (in words) (α2c adrenoreceptor; [5])
no activity	> 10 µM	no activity	> 10 µM	> 100 µM	no affinity	> 100 µM	no affinity	O=C(O)C(O)c1cccc(O)c1 (centres unmarked) [3-hydroxymandelic acid]	not active	no activity	no significant binding	but not; also recorded: no significant binding							
								CNC[C@H](O)c1cccc(O[C@@H]2O[C@H](C(=O)O)[C@@H](O)[C@H](O)[C@H]2O)c1 [PE glucuronide, (R)-PE glucuronide]	consistent with level of contaminating phenylephrine; also recorded: pharmacologically inactive	pharmacologically inactive	weakly inhibits binding; also recorded: pharmacologically inactive	weakly inhibits binding; also recorded: pharmacologically inactive	300-450 fold	minimal activity	No stimulatory activity	A small amount of binding	minimal activity	A small amount of binding	minimal activity
